The target of data set [1] is T1, rat striatal homogenates (dopamine transporter) (Rattus norvegicus, UniProt P23977).
T1 construct: from tissue; host or cells: rat striatum homogenate
Kind of data set: In vitro binding with rat striatal homogenates using [^125 I]IPT as the ligand. The following applies: for Ki: [^125 I]IPT as ligand.

The nature of data set [2]: Partition coefficient between 1-octanol (n-octanol) and buffer. It is filed as physicochemical. The conditions noted are these: for Partition coefficient (P.C.), 1-octanol/pH 7.0 buffer: 1-octanol/pH 7.0 phosphate buffer. As for the experimental part: (§1) Partition coefficients were measured by mixing each Tc-99m compound with 3 g each of 1-octanol and buffer (pH 7.0 or 7.4, 0.1 M phosphate) in a test tube. The test tube was vortexed for 3 minutes at room temperature, then centrifuged for 5 minutes. Two weighed samples (0.5 g each) from the 1-octanol and buffer layers were counted in a well counter. The partition coefficient was determined by calculating the ratio of cpm/g of octanol to that of buffer. Samples from the octanol layer were repartitioned until consistent partition coefficient values were obtained. The measurement was repeated 3 times.
as §1, with “The partition coefficient was measured” for “Partition coefficients were measured”, “mixing the” for “mixing each”, “3 min” for “3 minutes”

Data set [3] is classed as in vivo, Male Sprague-Dawley rats. The procedure: Male Sprague-Dawley rats (225-300 g) allowed free access to food and water were used for in vivo biodistribution studies. Kung, 1984, supra; Kung, 1985, supra. While under ether anesthesia, 0.2 mL of a saline solution containing 1.19a, 1.19b, 1.20a, 1.20b or 1.21 (50-100 μCi) was injected directly into the femoral vein of rats, and the rats were sacrificed by cardiac excision at various time points post-injection. The organs of interest were removed and weighed, and the radioactivity was counted with an automatic gamma counter (Packard 5000). The percentage dose per organ was calculated by a comparison of the tissue counts to suitably diluted aliquots of the injected material. Total activities of blood and muscle were calculated under the assumption that they were 7% and 40% of the total body weight, respectively.
(§2) The major criteria for determining the potential usefulness of in vivo dopamine transporter imaging agents are based on an animal biodistribution study. In this case, rats were used as an animal model. After an intravenous injection of the Tc-99m labeled compounds, the values of initial brain uptake (% dose/whole organ) at 2 minutes post intravenous injection are used to measure the ability to penetrate the intact blood-brain barrier. Compounds displaying higher brain uptake are the better agents (minimum requirement >0.1% dose in brain). The second criteria is the specific uptake in the striatum region of the brain, where dopamine transporters are located. The uptake value (% dose/gram) of the striatum (ST) is divided by the background area, cerebellum (CB; essentially devoid of dopamine transporter); the ratio of ST/CB is an indicator for specific uptake (minimum requirement for ST/CB >1.5). Five structurally similar tropane derivatives were examined in this biological study. (Tables 1.1 to 1.4).
Male Sprague-Dawley rats (225-300 g) that were allowed free access to food and water were used for in vivo biodistribution studies. (Kung, 1984, supra; Kung, 1985, supra). While under halothane anesthesia, 0.2 mL of a saline solution containing 3.24 to 3.34 ([…]) was injected directly into the femoral vein of rats, and they were sacrificed by cardiac excision at various time points post-injection. The organs of interest were removed and weighed, and the radioactivity was counted with an automatic gamma counter (Packard 5000). The percentage dose per organ was calculated by a comparison of the tissue counts to suitably diluted aliquots of the injected material. Total activities of blood and muscle were calculated under the assumption that they were 7% and 40% of the total body weight, respectively.

In data set [4] the target is T2, dopamine transporters (Rattus norvegicus, UniProt P23977). It is filed as in vivo, Male Sprague-Dawley rats. The conditions noted are these: rats, iv. As for the experimental part:
For dopamine transporter imaging agents, the target area of the brain is the striatum, where dopamine transporters are highly concentrated. The cerebellum region is suitable for use as the background region, because it has no dopamine transporters. The specific uptake is measured by the ratio of % dose/gram of striatum divided by % dose/gram of cerebellum (ST/CB ratio)--the higher the value, the better the specific uptake, and the more promising as a dopamine transporter imaging agent.
(§3) Regional brain distribution in rats was obtained after an injection of 1.19a, 1.19b, 1.20a, 1.20b or 1.21. Samples from different brain regions (cortex, striatum, hippocampus, and cerebellum) were dissected, weighed and counted, and the percentage dose per gram of sample was calculated by comparing the sample counts with the count of the diluted initial dose. The uptake ratio of each region was obtained by dividing the percentage dose per gram of that region by that of the cerebellum. For blocking studies, rats were injected with either β-CIT or haloperidol (iv, 1 mg/Kg) 5 min prior to injection of 1.19a. The rats were dissected and brain tissue samples were counted as described above. The specific uptake of the compound was expressed as ratio of ST/CB (% dose/g of striatum divided by the same of cerebellum).
as §2
as §3, with “3.24 to 3.34.” for “1.19a, 1.19b, 1.20a, 1.20b or 1.21.”, “3.25.” for “1.19a.”, “above.” for “above. The specific uptake of the compound was expressed as ratio of ST/CB (% dose/g of striatum divided by the same of cerebellum).”

Data set [5] deals with T2, dopamine transporters. Put plainly: In vitro autoradiography of rat brain sections. It is filed as binding, Male Sprague-Dawley rats. The conditions noted are these: rat brain coronal sections. The procedure: Male Sprague-Dawley rats ([…]) were sacrificed by decapitation, and the brains were removed, placed in OTC embedding medium (Miles Laboratory, Elkhart, Ind.) frozen in powdered dry ice. After equilibration to -15° C., 20 μm coronal sections were sliced on a cryostat (Hacker Instruments, Fairfield, N.J.), thaw mounted onto gelatin-coated slides, desiccated at 4° C. for 3 hours and kept at -70° C. until use. Prior to the experiment, the slides were dried at room temperature and preincubated for 30 minutes in buffer containing 50 mM Tris-HCl (pH 7.4, 120 mM NaCl). The slides were then incubated for 2 hours in preincubation buffer and the [^99m Tc] compound 3.25 (385,000 cpm/200 μL) in a coplan jar, washed for 1 hour in cold Tris buffer, with one change of buffer, dipped in ice-cold water to remove buffer salts and allowed to dry at room temperature. Nonspecific binding was determined in the presence of 1 μM IPT. These slides were simultaneously exposed to DuPont x-ray film in an autoradiographic cassette for 18 hours. The exposed film was developed with a Kodak automatic film processor.

In data set [6] the test system is dopamine transporters. The conditions noted are these: cited from earlier work.

Several values for one entry are separate records, joined by “and”; a condition that tells them apart may be missing. Equal values may be shown once. Read-outs that look alike come from different tables or passages of the source.

Results on seven molecules are retold here after US6241963A, “Dopamine and serotonin transporter ligands and imaging agents” (priority 1996, dated 2001).

T1 sequence (P23977 whole entry): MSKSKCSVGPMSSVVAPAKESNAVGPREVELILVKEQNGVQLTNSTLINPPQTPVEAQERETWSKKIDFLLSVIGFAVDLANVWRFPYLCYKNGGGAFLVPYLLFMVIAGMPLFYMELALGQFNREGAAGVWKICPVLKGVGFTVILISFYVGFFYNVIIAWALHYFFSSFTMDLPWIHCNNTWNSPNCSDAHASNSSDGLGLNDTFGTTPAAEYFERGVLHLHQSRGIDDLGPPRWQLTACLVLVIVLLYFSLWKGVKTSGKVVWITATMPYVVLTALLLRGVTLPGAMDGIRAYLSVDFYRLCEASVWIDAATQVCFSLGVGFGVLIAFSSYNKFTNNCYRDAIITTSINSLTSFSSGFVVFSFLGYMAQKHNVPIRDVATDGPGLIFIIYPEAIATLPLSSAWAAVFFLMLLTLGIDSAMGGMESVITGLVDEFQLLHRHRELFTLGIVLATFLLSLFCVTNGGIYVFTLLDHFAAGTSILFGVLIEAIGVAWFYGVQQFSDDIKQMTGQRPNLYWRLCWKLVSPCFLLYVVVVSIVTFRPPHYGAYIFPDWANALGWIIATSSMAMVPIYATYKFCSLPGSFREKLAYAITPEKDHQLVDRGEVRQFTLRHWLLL
T2 sequence (P23977 whole entry): as above

Turning to `COC(=O)[C@H]1[C@@H](c2ccc(Cl)cc2)C[C@@H]2CC[C@H]1N2CC[S][Re-]12(=[O])[S]CC[N+]1(C)CC[S]2` (stereo partly shown) [Compound 3.23], in data set [1], the Ki was 0.3 nM. That is a sub-nanomolar value.

“2b-{oxo[N,N'-bis-(2'-mercaptoethyl)-ethylenediaminato)]rhenium (V)-methylamino}-3b-(4-chlorophenyl)tropane [Compound 1.22]”: in data set [1], the Ki is 14 nM.

For `CN1[C@H]2CC[C@@H]1[C@@H](CN(CCS)CCNCCS)[C@@H](c1ccc(Cl)cc1)C2` [Compound 1.16a], the affinity in data set [1] corresponds to a Ki of 7 nM.

For the molecule `CN1[C@H]2CC[C@@H]1[C@@H](C(=O)[N+]13CC[S][99Tc-]14(=[O])[S]CC[N]4CC3)[C@@H](c1ccc(F)cc1)C2` (stereo partly shown) [Compound 1.20b], in data set [2], the “Partition coefficient (P.C.), 1-octanol/pH 7.0 buffer” value is 99-1818 and 104. Further, the “Brain uptake, 2 min” value in data set [3] (rats, iv, 2 min) is 0.31 ± 0.09 % dose/organ. The “Brain uptake, 60 min” value in data set [3] (rats, iv) came out at 0.07 ± 0.010 % dose/organ. Further, the “ST/CB ratio, 60 min” value on dopamine transporters [4] is 1.92 and 1.92 ± 0.28.

As to `COC(=O)[C@H]1[C@@H](c2ccc(Cl)cc2)C[C@@H]2CC[C@H]1N2CC=CI` [IPT, N-(3-iodopropen-2-yl)-2β-carbomethoxy-3β-(4-chlorophenyl)tropane, reference compound], in data set [1] (data not shown, read-out: Kd of the radioligand [^125 I]IPT), the Kd came to 0.2 nM. In addition, the Autoradiographic regional labeling result at dopamine transporters [5] is listed as “almost identical regional labeling pattern”. In addition, in the data set with dopamine transporters [6] (basal ganglia versus frontal cortex), the “Time for reaching optimal uptake ratio / equilibrium” value was “less than one hour”. Further, the “Literature binding / localization / biodistribution, in words” value in the data set on dopamine transporters [6] (in vivo) was “much higher binding affinity and selectivity to dopamine reuptake sites”.

For `CN1[C@H]2CC[C@@H]1[C@@H](C[N+]13CC[S][99Tc-]14(=[O])[S]CC[N]4C(=O)C3)[C@@H](c1ccc(Cl)cc1)C2` (stereo partly shown) [Compound 1.21], in data set [2], the “Partition coefficient / lipophilicity, comparison in words” value is on record as “almost tenfold higher partition coefficient” and the “Partition coefficient (P.C.), 1-octanol/pH 7.0 buffer” value is given as 1818. Besides, the “Brain uptake, 60 min, footnote c” value in data set [3] (data from rats sacrificed at 30 minutes) was found to be 0.07 ± 0.014 % dose/organ. Further, in data set [3] (rats, iv, 2 min), the “Brain uptake lower than 1.19a and 1.19b” value is on record as “at least 300%”; the “Brain uptake, 2 min” value is 0.11 ± 0.02 % dose/organ. Besides, the “Brain uptake, 30 min” value in data set [3] (rats, iv, 30 min) amounted to 0.070 ± 0.014 % dose/organ. Besides, on dopamine transporters [4], the “Brain uptake and specific striatal uptake, in words” value is on record as “lowest brain uptake”; the “ST/CB ratio, 60 min” value was 1.17 ± 0.010. For the same molecule, the “ST/CB ratio, 30 min” value at dopamine transporters [4] (30 min) is on record as 1.17. Also, the “ST/CB ratio, 60 min” value at dopamine transporters [4] (listed as 21) worked out at 1.17.

On to `CN1[C@H]2CC[C@@H]1[C@@H](C[N+]13CC[S][99Tc-]14(=[O])[S]CC[N]4CC3)[C@@H](c1ccc(F)cc1)C2` (stereo partly shown) [Compound 1.20a], for which, in data set [2], the “Partition coefficient (P.C.), 1-octanol/pH 7.0 buffer” value was 99-1818 and 99. Further, the “Brain uptake, 2 min” value in data set [3] (rats, iv, 2 min) is on record as 0.37 ± 0.09 % dose/organ. Also, the “Brain uptake, 60 min” value in data set [3] (rats, iv) is listed as 0.098 ± 0.014 % dose/organ. Further, the “ST/CB ratio, 60 min” value at dopamine transporters [4] was 2.18 and 2.18 ± 0.32.

The Ki is the dissociation constant of the complex between target and ligand, obtained from inhibition or displacement. Low readings indicate higher affinity, high ones lower affinity. By Kd is commonly meant the concentration at which binding is half-saturated.
